We go through 87 compounds from a melting point compilation (Tetko et al.; mined from patent text by program, amines drawn as free bases though some values may be those of a salt).

Each structure is given as a SMILES string.

For the compound `CCCc1nc(C)cc(=O)n1CCOc1ccc(CC2SC(=O)NC2=O)cc1` (configuration not stated), the melting point – broadly, the temperature of the solid-liquid transition – was in the range of 144 to 146 °C.

In the case of `COc1cccc(C(=CC2CCN(CCCCCCCCc3cccnc3)CC2)c2cccc(OC)c2)c1`, the melting point was 112 to 115 °C.

As for `COC(=O)c1cc(NC(=O)c2ccc(Cl)cc2)c2cc(Cc3ccc(F)cc3)cnc2c1O`, the melting point was 253 to 254 °C.

In turn, `Nc1c(F)c(N2CCCC2)c(F)c2c1c(=O)c(C(=O)O)cn2C1COC1` gave a melting point of 250 to 253 °C.

Turning to `CCS(=O)c1c(C#N)nn(-c2c(Cl)cc(C(F)(F)F)cc2Cl)c1N` (configuration not stated), the melting point lay in the range of 173 to 174 °C.

In the case of `CC(C)(C)C1=CC(=O)C=CC1=O`, the melting point is 55 to 60 °C.

Regarding `CCCNC(=O)N(Cc1ccc(C)cc1)NC(=O)OC(C)(C)C`, the melting point fell in the range of 87.8 to 89.4 °C.

For `N#Cc1cccc2c1CC(=O)c1ccccc1S2`, the melting point was in the range of 165 to 167 °C.

For the compound `COC(=O)C(Oc1ccc(Cl)cc1)c1ccc(Oc2cccc(C(F)(F)F)c2)cc1` (configuration not stated), the melting point lay in the range of 79 to 82 °C.

The compound `Nc1ncc2cc(-c3c(Cl)cccc3Br)c(N)nc2n1` gave a melting point of 264 to 280 °C.

Turning to `Clc1nc2ccccc2cc1CBr`, the melting point was determined as 125 °C.

In the case of `Nc1ccncc1-c1n[nH]c2ccccc12`, the melting point is 237 to 239 °C.

`CCOP(=O)(OCC)c1nc(Nc2ccccc2)nc(N2CCCC2)n1` gave a melting point of 150 to 151 °C.

As to `CCNc1cc(Oc2ccc(NC(=O)NC3CC3c3ccccc3)cc2)ncn1` (configuration not stated), the melting point lay within 205 to 206 °C.

`CC(C)C[C@@H](CO)NC(=O)[C@H](Cc1c[nH]cn1)NC(=O)[C@H](Cc1cccc2ccccc12)NC(=O)OCC1c2ccccc2-c2ccccc21` yielded a melting point of 118 to 120 °C.

On to `O=C(CCc1ccc(NC2=NCCN2)cc1)c1ccc(N2CCOCC2)cc1F`, for which the melting point was in the range of 168 to 171 °C.

Regarding `CN1CCN=C1N1CCNCC1`, the melting point lay within 115 to 125 °C.

Compound `CN(Cc1ccccc1)S(=O)(=O)CC(N)=O` gave a melting point of 124 to 127 °C.

`O=C1c2ccccc2C(=O)c2sc(-c3cccnc3)nc21` showed a melting point of 256 °C.

For `CCOC(=O)c1c(C)cc(C(=O)O)c(NC(C)=O)c1C`, the melting point stood at 164 °C.

For the compound `Cn1ncc(/C=C/C(=O)Nc2ccc(CS(C)=O)cc2)c1-c1ccc(F)cc1` (configuration not stated), the melting point lay within 240 to 241 °C.

The compound `CCCCC(CC)CNc1cccc(-c2ccnc3c(C(=O)c4cccs4)cnn23)c1` (configuration not stated) showed a melting point of 134 to 138 °C.

For `COc1ccc(C(C)N(O)C(N)=O)cc1` (configuration not stated), the melting point fell in the range of 132 to 134 °C.

With `O=C(Nc1ccc(OC(F)(F)F)cc1)c1c(O)c2ccccc2oc1=O`, the melting point is 194 to 195 °C.

For the compound `O=C1c2ccccc2C(=O)c2sc(-c3ccco3)nc21`, the melting point is greater than 260 °C.

`Cc1ccc(C(F)(F)F)cc1-c1ccc(S(=O)(=O)N2c3ccccc3CC2C(=O)NCCOc2ccc(CC(=O)O)cc2)cc1` (configuration not stated) yielded a melting point of 80 to 84 °C.

`COc1ccc(CC2NCCOc3c2cnn(C)c3=O)cc1` (configuration not stated) registered a melting point of 92 to 93 °C.

In turn, `C[C@@H](N1CCN(c2ccc(-n3cnn(Cc4ccc(OCC(F)(F)C(F)F)cc4)c3=O)cc2)CC1)[C@](O)(Cn1cncn1)c1ccc(F)cc1F` showed a melting point of 83 to 85 °C.

`COc1ccc(/C=N/Nc2ccccc2)cc1OC1CCCC1` showed a melting point of 138 to 140 °C.

`N#Cc1c(-c2sc(Cl)c(Cl)c2Cl)[nH]c(C(F)(F)F)c1Br` displayed a melting point of 221 to 224 °C.

Take `CCN1C(=O)C(F)N=C(c2ccccc2)c2cc(Cl)ccc21` (configuration not stated): the melting point is 156 to 158 °C.

In turn, `O=c1c(-c2nc[nH]n2)coc2ccccc12` showed a melting point of 160 °C.

For `CN1CC=C(c2c[nH]c3c(Cl)c(Cl)ccc23)CC1`, the melting point lay within 246 to 249 °C.

For `OC1(c2ccccc2)Cc2ccccc2C1`, the melting point was 54 °C.

Compound `Nc1c(F)c(N2CCC3(CC3N)C2)c(F)c2c1c(=O)c(C(=O)O)cn2[C@@H]1C[C@@H]1F` (some centres not stated) displayed a melting point of 180 to 181 °C.

As for `CCOC(=O)Cn1c2cccccc-2c(CC)c1=O`, the melting point lay in the range of 128 to 131 °C.

The compound `CC(=O)Nc1cc(C(F)(F)F)ccc1SCC#N` registered a melting point of 103 °C.

`O=C(c1ccc(-c2ccc(OCCCN3CCCCC3)cc2)cc1)N1CCCCC1` registered a melting point of 122 °C.

The compound `CSc1cc(S(F)(F)(F)(F)F)ccc1C(=O)O` registered a melting point of 150 to 152 °C.

In the case of `Cn1cc(C(O)(c2ccc3c(cnn3C(=O)C3CCC3)c2)C(F)(F)F)c2ccccc21` (configuration not stated), the melting point was 79 to 81 °C.

With `CC(CC(=O)O)(c1ccc(OCc2ccc3ccccc3n2)cc1)c1ccc(OCc2ccc3ccccc3n2)cc1`, the melting point is 94 to 96 °C.

Turning to `CCN(CC)Cc1cc(C(=O)c2ccccc2)cc(C2CCCCC2)c1O`, the melting point is 106 to 107 °C.

The compound `COc1ccc2cc3c(c(-c4ccc(F)cc4)c2c1)CNC3=O` displayed a melting point of 282 to 284 °C.

`C1=Cc2ccccc2C(C2CCN(C3CCCCC3)CC2)c2ccccc21` gave a melting point of 162 to 164 °C.

`CCS(=O)(=O)CCC(=O)NNC(=O)N1Cc2ccccc2Oc2c(Cl)cccc21` came in with a melting point of 209 to 211 °C.

The compound `CN1C(=O)Nc2ccccc2C12NC(=O)N(COCc1ccccc1)C2=O` (configuration not stated) registered a melting point of 226 to 227 °C.

`Cc1ccc(-c2cccnc2N2CCC(C(=O)O)CC2)cc1C(=O)NCC12CC3CC(CC(C3)C1)C2` yielded a melting point of 60 °C.

Regarding `Cc1nc(C(CC(C)C)Nc2c(C#N)cnn3cccc23)sc1C` (configuration not stated), the melting point worked out at 138 °C.

Consider `COc1ccc(F)cc1C(C)(C)CC(=O)C(=O)O`, for which the melting point was 58 to 60 °C.

In turn, `COc1c(Oc2ccccc2C)cccc1C(N)C(=O)O` (configuration not stated) displayed a melting point of 169 to 170 °C.

`CCc1ccccc1NC=C1C(=O)N(c2ccc(C(N)=O)cc2)N=C1C` returned a melting point of 225 °C.

As for `CON1C(C)(C)CC(OC(=O)c2ccccc2C(=O)OC2CC(C)(C)N(OC)C(C)(C)C2)CC1(C)C`, the melting point lay in the range of 124 to 126 °C.

Compound `O=C(c1ccc(Cl)cc1)c1cc2ccccc2cc1O` had a melting point of 135 to 137 °C.

The compound `O=[N+]([O-])c1cc2c(cc1[N+](=O)[O-])OC(CC(F)(F)F)(C(F)(F)F)O2` showed a melting point of 101 to 103 °C.

Consider `Cc1cccc2cc(C(=O)N(C)C)c(C=CNc3ccccc3)nc12`, for which the melting point fell in the range of 143 to 146 °C.

The compound `CCC(=O)C(CCCCCCCOc1ccc(OCc2ccccc2)cc1)C(=O)CC` gave a melting point of 54 to 55 °C.

Compound `COCc1c(-c2nnc(N)o2)ncc2[nH]c3ccc(OCc4ccccc4)cc3c12` registered a melting point of 290 to 293 °C.

For the compound `O=C(O)c1ccc(COCc2csc3nc(C(=O)O)[nH]c(=O)c23)cc1`, the melting point is 248 °C.

`COc1ccc2c(c1CCc1ccccc1)CCCC2=O` came in with a melting point of 102 to 105 °C.

Regarding `Cc1cc(C)nc(NC#N)n1`, the melting point was determined as 205 °C.

Compound `CCOC(=O)C(=CN(C)C)C(=O)c1ccc(Br)cc1Cl` yielded a melting point of 100 to 101 °C.

Regarding `CCCCS(=O)(=O)Nc1cccc(Oc2cccc3cccnc23)c1`, the melting point lay within 107 to 108 °C.

As to `N#CSCOc1cc(Cl)c(Cl)cc1Cl`, the melting point was in the range of 103 to 105 °C.

Take `COC(=O)C1=C(C)NC(C)=C(C(=O)OCC(C)=O)C1c1cccc([N+](=O)[O-])c1` (configuration not stated): the melting point worked out at 139 °C.

The compound `OCCOc1cnccc1CCCOc1cccnc1Oc1ccccc1` showed a melting point of 129 to 132 °C.

In turn, `COc1cc(C=O)ccc1OCCCCCCOC(C)=O` displayed a melting point of 74 to 75 °C.

In turn, `COC(=O)c1ccc(SC)c(OC2CCCC2)c1` displayed a melting point of 53 to 55 °C.

Compound `COc1cc(Nc2c(C#N)cnc3cc(Sc4ccccc4)c(OC)cc23)c(Cl)cc1Cl` displayed a melting point of 220 to 222 °C.

Take `CC(C)(C)[Si](C)(C)Oc1ccc2c(c1)OC(c1ccc(O)cc1)c1c-2sc2cc(O[Si](C)(C)C(C)(C)C)ccc12` (configuration not stated): the melting point was 174 to 175 °C.

Consider `COc1cc2c(cc1OC)C1(CCC2=O)CCC(=O)N(C)C1=O` (configuration not stated), for which the melting point lay in the range of 168 to 170 °C.

Regarding `Cn1nc2c(-c3ccc(Cl)cc3Cl)cccc2c1-n1cnnc1`, the melting point is 118 to 121 °C.

In turn, `COc1cc2ccc(C(=O)CCl)cc2cc1OC` showed a melting point of 137 to 140 °C.

As to `CCOC(=O)c1cccc(NC(=O)NC2C(=O)N(CC34CC5CC(CC(C5)C3)C4)c3ccccc3N(c3ccccc3)C2=O)c1` (configuration not stated), the melting point was in the range of 220 to 221 °C.

Regarding `CC(=O)C(C)N1C(=O)N(c2ccc(N3CCN(c4ccc(O)cc4)CC3)cc2)C(=O)C1(C)C` (configuration not stated), the melting point stood at 226 °C.

Consider `CCOC(=O)c1ncn(-c2nc(C)cs2)c1N`, for which the melting point was in the range of 152 to 155 °C.

Take `Fc1ccc(-c2[nH]cc(CCCN3CCN(Cc4ccccc4)CC3)c2-c2ccncc2)cc1`: the melting point lay in the range of 153 to 154 °C.

As to `O=C(Nc1ccccc1)c1csc(Oc2cccc(Cl)c2)n1`, the melting point was in the range of 94 to 95 °C.

`O=CNC=Cc1cc(O)ccc1O` returned a melting point of 149 to 153 °C.

Compound `COc1ccc(-c2nc(N)ncc2-c2ccc(=O)n(C)n2)cc1F` registered a melting point of 245 °C.

`COc1ccccc1S(=O)(=O)N(C)c1cccc2cc(C3=NCC(CC(=O)O)S3)[nH]c12` (configuration not stated) had a melting point of 197 to 198 °C.

In turn, `O=C(c1ccccc1)c1cccc(NC(=O)C(Cl)CCl)c1` (configuration not stated) returned a melting point of 92 °C.

In the case of `CCc1nc2c(C)c(C#N)c(C)cc2n1-c1ccc(CCNC(=O)NS(=O)(=O)c2ccc(C)cc2)cc1`, the melting point was 140 to 145 °C.

The compound `COc1cc2nc(N)nc(-c3cccc(I)c3)c2cc1OC` displayed a melting point of 235 to 242 °C.

In the case of `CC(C)(c1cc(F)cc([N+](=O)[O-])c1O)c1cc(F)cc([N+](=O)[O-])c1O`, the melting point was determined as 138 °C.

`O=C(O)COCCC1CCN(c2cnc(-c3ccccc3)c(-c3ccccc3)n2)CC1` registered a melting point of 173 to 174 °C.

On to `Cc1c(C(=O)Nc2ccc(N3CCC(O)CC3)c(C#N)c2)cnn1-c1ccccc1`, for which the melting point was 182 °C.

Turning to `COc1cc(Nc2cc3c(cc2Nc2ccccc2)C(=O)NC3=O)cc(OC)c1OC`, the melting point is 203 to 205 °C.
